Test results taken from ChEMBL document CHEMBL5042500 (J Med Chem, 2022).
In brackets after ≈: the same amount, converted by molar mass.

Key:
[1] = Effect on chondrocyte hypertrophic differentiation mouse ATDC-5 cells assessed as inhibition of […] gene expression incubated for 2 weeks followed by compound added and every 3 days medium is changed measured after 2 weeks by RT-qPCR analysis; type: functional, cell-based
[2] = Ratio of AUC(0 to 24 hrs) in femoral head to plasma in rat measured after 24 hrs; type: ADME, Bone/Plasma; details: read-out: Selectivity ratio
[3] = Intrinsic clearance in human hepatocytes assessed per 10^-6 cells; type: ADME, cell-based, Hepatocyte
[4] = AUC (0 to 24 hrs) in C57BL/6 mouse at 30 mg/kg, po; type: ADME, organism-based; design: time < 24 hr, route oral, dose 30 mg/kg; details: in vivo
[5] = Metabolic stability in Sprague-Dawley rat liver microsomes assessed as compound degradation in presence of NADPH measured after 20 mins; type: ADME, Microsome; details: read-out: Drug degradation
[6] = AUC (0 to 24 hrs) in Lewis rat plasma at 30 mg/kg, po measured after 8 hrs; type: ADME, organism-based; design: route oral, dose 30 mg/kg, time 8 hrs
[7] = Permeability in human Caco2 cells at 20 uM incubated for 120 mins by ESI-MS/MS analysis; type: ADME, cell-based; details: Caco-2, read-out: permeability
[8] = Metabolic stability in human liver microsomes assessed as compound degradation in presence of NADPH measured after 20 mins; type: ADME, Microsome; details: read-out: Drug degradation
[9] = Aqueous solubility of the compound at pH 7.4; type: physicochemical
[10] = Chemical stability of the compound at pH 7.4 measured after 24 hrs; type: physicochemical; details: buffer, read-out: Stability
Cytochrome P450 3A4 [11] = molecular target: T1, Cytochrome P450 3A4 (Homo sapiens, UniProt P08684); assay: Inhibition of CYP3A4 in human liver microsomes using testosterone as substrate incubated for 30 mins by LC-MS/MS analysis; type: ADME
T1 sequence (P08684 whole entry): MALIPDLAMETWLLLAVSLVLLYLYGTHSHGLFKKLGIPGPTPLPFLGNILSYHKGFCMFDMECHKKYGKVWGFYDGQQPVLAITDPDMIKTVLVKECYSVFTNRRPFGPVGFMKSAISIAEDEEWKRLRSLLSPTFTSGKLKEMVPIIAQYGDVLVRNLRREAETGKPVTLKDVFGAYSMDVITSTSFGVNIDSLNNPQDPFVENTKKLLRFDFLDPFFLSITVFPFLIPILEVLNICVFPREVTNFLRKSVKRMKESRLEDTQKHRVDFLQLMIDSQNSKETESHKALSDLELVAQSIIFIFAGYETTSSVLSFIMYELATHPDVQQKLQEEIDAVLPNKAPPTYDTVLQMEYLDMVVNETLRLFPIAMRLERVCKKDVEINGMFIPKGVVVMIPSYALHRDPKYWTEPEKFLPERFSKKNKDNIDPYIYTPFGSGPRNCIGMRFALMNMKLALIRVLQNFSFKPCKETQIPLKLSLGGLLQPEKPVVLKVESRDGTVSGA

Homo sapiens = species on record: Homo sapiens; assay: Inhibition of p70S6Kb kinase (unknown origin) at 0.1 uM
[12] = Cmax in Lewis rat femoral head cartilage at 30 mg/kg, po measured after 8 hrs; type: ADME, organism-based, Femur; design: route oral, time 8 hrs, dose 30 mg/kg
[13] = Solubility of the compound in FeSSIF at pH 5.0; type: physicochemical
[14] = Initial plasma concentration in C57BL/6 mouse at 3 mg/kg, iv; type: ADME, organism-based
Salmonella typhimurium [15] = assay: Mutagenicity in Salmonella typhimurium […] by ames test; type: toxicity, organism-based; details: salmonella enterica subsp. enterica serovar typhimurium
[16] = Intrinsic clearance in C57BL/6 mouse at 3 mg/kg, iv; type: ADME, organism-based; details: in vivo
Cytochrome P450 3A4 [17] = molecular target: T1, Cytochrome P450 3A4; assay: Inhibition of CYP3A4 in human liver microsomes using midazolam as substrate incubated for 10 mins by LC-MS/MS analysis; type: ADME
[18] = Tmax in Lewis rat femoral head cartilage at 30 mg/kg, po measured after 8 hrs; type: ADME, organism-based, Femur
hERG (KCNH2) [19] = molecular target: T2, hERG (KCNH2) (Homo sapiens, UniProt Q12809); assay: Inhibition of human ERG at 1 uM relative to control; type: toxicity
T2 sequence (Q12809 whole entry): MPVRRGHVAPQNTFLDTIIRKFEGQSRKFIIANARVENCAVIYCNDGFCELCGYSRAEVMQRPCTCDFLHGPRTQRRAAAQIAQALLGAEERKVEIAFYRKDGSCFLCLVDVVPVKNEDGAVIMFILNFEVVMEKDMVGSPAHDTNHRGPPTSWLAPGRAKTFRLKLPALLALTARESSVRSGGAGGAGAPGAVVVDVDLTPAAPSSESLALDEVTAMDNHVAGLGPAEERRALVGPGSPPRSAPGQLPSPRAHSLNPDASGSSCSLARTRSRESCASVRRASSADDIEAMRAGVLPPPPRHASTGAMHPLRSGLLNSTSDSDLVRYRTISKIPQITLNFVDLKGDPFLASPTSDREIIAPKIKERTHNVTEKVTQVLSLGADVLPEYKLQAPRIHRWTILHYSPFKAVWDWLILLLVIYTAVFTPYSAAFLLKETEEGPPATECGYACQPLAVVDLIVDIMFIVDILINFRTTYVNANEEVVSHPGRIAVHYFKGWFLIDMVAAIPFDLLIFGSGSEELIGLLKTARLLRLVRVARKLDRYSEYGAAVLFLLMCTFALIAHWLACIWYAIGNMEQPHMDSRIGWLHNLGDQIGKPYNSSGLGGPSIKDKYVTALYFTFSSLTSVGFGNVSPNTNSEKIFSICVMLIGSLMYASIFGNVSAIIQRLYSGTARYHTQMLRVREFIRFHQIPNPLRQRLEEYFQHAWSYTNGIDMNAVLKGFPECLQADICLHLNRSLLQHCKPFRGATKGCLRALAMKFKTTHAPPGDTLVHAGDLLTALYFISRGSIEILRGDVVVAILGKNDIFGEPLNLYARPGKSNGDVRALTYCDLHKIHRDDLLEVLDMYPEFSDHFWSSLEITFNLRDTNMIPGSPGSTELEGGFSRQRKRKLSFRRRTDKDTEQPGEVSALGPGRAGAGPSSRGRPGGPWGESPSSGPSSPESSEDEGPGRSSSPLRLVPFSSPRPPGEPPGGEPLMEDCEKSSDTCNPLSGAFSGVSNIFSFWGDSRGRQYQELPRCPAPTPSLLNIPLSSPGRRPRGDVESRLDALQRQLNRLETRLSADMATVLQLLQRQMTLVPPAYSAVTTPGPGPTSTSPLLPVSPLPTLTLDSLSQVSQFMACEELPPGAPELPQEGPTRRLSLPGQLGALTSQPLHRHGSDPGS

hERG (KCNH2) [20] = molecular target: T2, hERG (KCNH2); assay: Inhibition of human ERG at 10 uM; type: toxicity
[21] = Half life in C57BL/6 mouse plasma at 30 mg/kg, po measured after 8 hrs; type: ADME, organism-based
[22] = Ratio of AUC(0 to 24 hrs) in femoral head to plasma in rat measured after 1 hrs; type: ADME, Bone/Plasma; details: read-out: Selectivity ratio
[23] = Tmax in C57BL/6 mouse plasma at 30 mg/kg, po; type: ADME, organism-based
[24] = Cmax in Lewis rat plasma at 30 mg/kg, po measured after 8 hrs; type: ADME, organism-based; design: route oral, time 8 hrs, dose 30 mg/kg
[25] = molecular target: T3, Serine/threonine-protein kinase Sgk1 (Homo sapiens, UniProt O00141); assay: Inhibition of recombinant human SGK1 expressed in baculovirus expression system using 5-carboxyfluorescein -RPRAATF-NH2 as substrate preincubated for 30 mins followed by substrate addition in presence of 500 uM ATP and measured after 60 mins by microfluidics assay
T3 sequence (O00141 whole entry): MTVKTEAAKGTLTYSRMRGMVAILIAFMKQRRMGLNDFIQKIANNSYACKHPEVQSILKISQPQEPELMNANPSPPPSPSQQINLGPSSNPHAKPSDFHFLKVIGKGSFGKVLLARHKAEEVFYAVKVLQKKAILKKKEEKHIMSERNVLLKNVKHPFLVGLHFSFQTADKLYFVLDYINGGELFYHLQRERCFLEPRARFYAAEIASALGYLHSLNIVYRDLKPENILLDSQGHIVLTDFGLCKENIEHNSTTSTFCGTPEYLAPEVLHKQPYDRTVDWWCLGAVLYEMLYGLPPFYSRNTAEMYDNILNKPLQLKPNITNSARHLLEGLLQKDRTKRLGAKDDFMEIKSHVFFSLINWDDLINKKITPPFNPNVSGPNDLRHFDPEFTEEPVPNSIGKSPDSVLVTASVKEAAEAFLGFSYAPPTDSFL

[26] = molecular target: Ribosomal protein S6 kinase alpha-1 (Homo sapiens) (UniProt Q15418); assay: Inhibition of RSK1 kinase (unknown origin) at 0.1 uM
Ribosomal protein S6 kinase alpha-1 (Homo sapiens), sequence (Q15418 whole entry): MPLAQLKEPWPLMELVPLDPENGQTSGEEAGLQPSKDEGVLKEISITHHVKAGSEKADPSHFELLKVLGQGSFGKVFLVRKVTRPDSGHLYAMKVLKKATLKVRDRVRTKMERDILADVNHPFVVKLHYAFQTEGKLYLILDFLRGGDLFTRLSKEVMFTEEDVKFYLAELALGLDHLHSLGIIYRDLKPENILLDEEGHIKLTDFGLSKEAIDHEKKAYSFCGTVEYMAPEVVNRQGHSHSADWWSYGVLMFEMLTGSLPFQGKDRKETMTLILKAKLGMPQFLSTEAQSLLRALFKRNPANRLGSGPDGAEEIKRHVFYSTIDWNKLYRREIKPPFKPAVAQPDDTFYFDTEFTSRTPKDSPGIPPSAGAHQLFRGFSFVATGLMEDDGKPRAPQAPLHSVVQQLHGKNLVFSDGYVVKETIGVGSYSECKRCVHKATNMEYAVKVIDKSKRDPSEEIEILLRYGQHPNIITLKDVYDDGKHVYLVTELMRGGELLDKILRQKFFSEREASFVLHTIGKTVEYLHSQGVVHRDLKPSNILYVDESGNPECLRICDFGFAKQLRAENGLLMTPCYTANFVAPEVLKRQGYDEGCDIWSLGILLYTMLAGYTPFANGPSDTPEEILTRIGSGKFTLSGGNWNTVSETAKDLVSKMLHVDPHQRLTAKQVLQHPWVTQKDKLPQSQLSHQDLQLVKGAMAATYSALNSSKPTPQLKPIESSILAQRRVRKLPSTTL

[27] = AUC (0 to 24 hrs) in Lewis rat femoral head cartilage at 30 mg/kg, po measured after 8 hrs; type: ADME, organism-based, Femur; design: route oral, dose 30 mg/kg, time 8 hrs
[28] = Tmax in Lewis rat plasma at 30 mg/kg, po measured after 8 hrs; type: ADME, organism-based
[29] = AUC (0 to 24 hrs) in C57BL/6 mouse at 3 mg/kg, iv; type: ADME, organism-based; design: time < 24 hr, route intravenous, dose 3 mg/kg; details: in vivo
[30] = Half life in C57BL/6 mouse plasma at 3 mg/kg, iv; type: ADME, organism-based
[31] = Inhibition of rat SGK1 in presence 500 uM presence of ATP
CYP3A4 = CYP3A4 (Homo sapiens, UniProt P08684); assay: Inhibition of CYP3A4 in human liver microsomes by measuring maximum efficacy; type: ADME
CYP3A4, sequence (P08684 whole entry): as the sequence (P08684 whole entry) above

Salmonella typhimurium [32] = assay: Mutagenicity in Salmonella typhimurium […] in presence of S9 fraction by ames test; type: toxicity, organism-based; details: salmonella enterica subsp. enterica serovar typhimurium
[33] = molecular target: T4, Serine/threonine-protein kinase Sgk1 (Mus musculus, UniProt Q9WVC6); assay: Inhibition of mouse SGK1 in presence 500 uM presence of ATP
T4 sequence (Q9WVC6 whole entry): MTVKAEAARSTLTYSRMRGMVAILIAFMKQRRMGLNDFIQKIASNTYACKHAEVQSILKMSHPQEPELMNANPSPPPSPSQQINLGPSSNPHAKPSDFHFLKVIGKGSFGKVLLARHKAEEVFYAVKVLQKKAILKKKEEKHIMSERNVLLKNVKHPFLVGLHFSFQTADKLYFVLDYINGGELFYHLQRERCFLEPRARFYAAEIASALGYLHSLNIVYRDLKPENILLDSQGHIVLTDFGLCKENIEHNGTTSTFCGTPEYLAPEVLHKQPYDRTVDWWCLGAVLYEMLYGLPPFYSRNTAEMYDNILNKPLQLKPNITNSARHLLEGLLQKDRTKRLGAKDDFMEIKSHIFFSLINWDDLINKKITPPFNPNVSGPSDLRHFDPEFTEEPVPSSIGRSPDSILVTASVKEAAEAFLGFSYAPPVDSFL

[34] = Cmax in C57BL/6 mouse plasma at 30 mg/kg, po measured after 8 hrs; type: ADME, organism-based; design: route oral, time 8 hrs, dose 30 mg/kg
[35] = Metabolic stability in CD1 mouse liver microsomes assessed as compound degradation in presence of NADPH measured after 20 mins; type: ADME, Microsome; details: read-out: Drug degradation
[36] = Oral bioavailability in C57BL/6 mouse at 30 mg/kg; type: ADME, organism-based; details: in vivo
[37] = molecular target: T3, Serine/threonine-protein kinase Sgk1; assay: Inhibition of recombinant human SGK1 expressed in baculovirus expression system using 5-carboxyfluorescein -RPRAATF-NH2 as substrate preincubated for 30 mins followed by substrate addition in presence of 10 uM ATP and measured after 60 mins by microfluidics assay
[38] = Distribution coefficient, logD of compound at pH 7.4 by chromatographic analysis; type: physicochemical; details: octanol/water
[39] = Volume of distribution at steady state in C57BL/6 mouse at 3 mg/kg, iv qd; type: ADME, organism-based; details: in vivo, read-out: Vdss

Cc1n[nH]c2nc(-c3ccc(NS(=O)(=O)c4cc(Cl)ccc4F)cc3)nc(OC3CCN(C(C)C)CC3)c12
IC50 [1]: 0.07 µM
Kp at 24 h [2]: 1.1
CLH [3]: 0.042 mL/h
AUC(0-t) at 24 h [4]: 22800 ng·h/mL
metabolised at 20 min [5]: 12%
AUC(0-t) at 8 h [6]: 60100 ng·h/mL
Papp at 2 h, 20 µM [7]: 4.6 ×10⁻⁶ cm/s
metabolised at 20 min [8]: 9%
solubility [9]: < 1 µg/mL
remaining at 24 h [10]: 100%
IC50 (Cytochrome P450 3A4 [11]): > 30 µM
inhibition (Homo sapiens): 58%
Cmax [12]: 1200 ng/g
solubility [13]: 281 µg/mL (≈ 503 µM)
C0 [14]: 2200 ng/mL
Activity (Salmonella typhimurium [15]): Non-Toxic
CL [16]: 17 mL/min/kg
IC50 (Cytochrome P450 3A4 [17]): > 30 µM
Tmax [18]: 8 h
inhibition at 1 µM (hERG (KCNH2) [19]): 60%
inhibition at 10 µM (hERG (KCNH2) [20]): 91%
half-life [21]: 4.8 h
Kp at 1 h [22]: 0.1
Tmax [23]: 3.3 h
Cmax [24]: 4200 ng/mL
IC50 [25]: 0.003 µM
inhibition [26]: 64%
AUC(0-t) at 8 h [27]: 16900 ng·h/mL
Tmax [28]: 8 h
AUC(0-t) at 24 h [29]: 3200 ng·h/mL
half-life [30]: 2.1 h
IC50 [31]: 0.224 µM
Emax (CYP3A4): 0%
Activity (Salmonella typhimurium [32]): Non-Toxic
IC50 [33]: 0.171 µM
Cmax [34]: 2200 ng/mL
metabolised at 20 min [35]: 15%
bioavailability [36]: 72%
IC50 [37]: 0.002 µM
chromatographic logD [38]: 1.3
Vd [39]: 2.4 L/kg
